Source: ChEMBL document CHEMBL1131042, “beta-Lactam derivatives as inhibitors of human cytomegalovirus protease” (J Med Chem, 1998)
pIC50: −log10 of the molar value.

Assays:
[1] = Time taken to reduce 50% of the concentration of compound in blood plasma; assay type: ADME, tissue-based; conditions: human
Pancreatic elastase = Pancreatic elastase (Sus scrofa, UniProt P08419+P00772); assay: Compound was tested for its activity against porcine Pancreatic elastase; assay type: protein assay
Chymotrypsinogen A = Chymotrypsinogen A (Bos taurus, UniProt P00766); assay: Compound was tested for its activity against bovine pancreatic Alpha-chymotrypsin (BPC)
Neutrophil elastase = biological target: T1, Neutrophil elastase (Homo sapiens, UniProt P08246); assay: Compound was tested for its activity against human leukocyte elastase(HLE)
T1 sequence (P08246 whole entry): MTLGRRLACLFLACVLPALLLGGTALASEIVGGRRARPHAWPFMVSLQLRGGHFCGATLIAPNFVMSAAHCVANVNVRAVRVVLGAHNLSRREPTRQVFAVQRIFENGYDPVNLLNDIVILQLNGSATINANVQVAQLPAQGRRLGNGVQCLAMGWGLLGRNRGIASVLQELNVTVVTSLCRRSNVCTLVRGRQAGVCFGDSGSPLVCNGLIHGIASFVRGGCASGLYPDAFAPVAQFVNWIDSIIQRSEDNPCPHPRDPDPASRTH

SMILES	half-life [1]	IC50 (Pancreatic elastase)	pIC50 (Chymotrypsinogen A)	pIC50 (Neutrophil elastase)
O=C1C[C@H](Cc2ccccc2)N1C(=O)N(Cc1ccccc1)OCc1ccccc1	< 12 h			
C[C@H]1C(=O)N(C(=O)NCc2ccncc2)[C@H]1Cc1ccccc1	36 h	19 µM		
CO[C@@H]1C(=O)N(C(=O)NCc2ccncc2)[C@H]1Cc1ccccc1	< 12 h	0.3 µM	4.42	6.05
CC[C@@H]1C(=O)N(C(=O)NCc2ccncc2)[C@H]1Cc1ccccc1	48 h	1.7 µM	4.72	
C[C@@H]1C(=O)N(C(=O)NCc2ccncc2)[C@H]1Cc1ccccc1	36 h	53 µM		
CS[C@@H]1C(=O)N(C(=O)NCc2ccncc2)[C@H]1Cc1ccccc1	< 12 h	< 0.2 µM	5.66	> 6.70
C=CC[C@@H]1C(=O)N(C(=O)NCc2ccncc2)[C@H]1Cc1ccccc1	36 h	4.7 µM	5.22	6.52
O=C1C[C@H](Cc2ccccc2)N1C(=O)NCc1ccncc1	24 h	> 75 µM	< 4.12	< 4.12
O=C1C[C@H](Cc2ccccc2)N1C(=O)NC1CCCCC1	24 h			
O=C1C[C@H](Cc2ccccc2)N1C(=O)NCc1cccnc1	24 h			
CC1(C)C(=O)N(C(=O)NCc2ccncc2)[C@H]1Cc1ccccc1	120 h	45 µM	< 4.12	5.52
CC1(C)C(=O)N(C(=O)NCc2ccncc2)C1Cc1ccccc1 (single isomer, unassigned)	120 h			

Next, values leading:

half-life [1]	IC50 (Pancreatic elastase)	pIC50 (Chymotrypsinogen A)	pIC50 (Neutrophil elastase)	SMILES
36 h				O=C1C[C@H](Cc2ccccc2)N1C(=O)NCCc1ccccc1
36 h				CN(Cc1ccccc1)C(=O)N1C(=O)C[C@@H]1Cc1ccccc1
36 h				O=C1C[C@H](Cc2ccccc2)N1C(=O)NCc1ccccn1
< 12 h				O=C1C[C@H](Cc2ccccc2)N1C(=O)Nc1ccc(F)cc1
< 12 h				Cc1ccc(NC(=O)N2C(=O)C[C@@H]2Cc2ccccc2)cc1
< 12 h				O=C1C[C@H](Cc2ccccc2)N1C(=O)Nc1ccccc1
< 12 h				CON(Cc1ccccc1)C(=O)N1C(=O)C[C@@H]1Cc1ccccc1
48 h				O=C1C[C@H](Cc2ccccc2)N1C(=O)N(Cc1ccccc1)C1CC1
36 h				O=C1C[C@H](Cc2ccccc2)N1C(=O)NCc1ccccc1
48 h				CCN(Cc1ccccc1)C(=O)N1C(=O)C[C@@H]1Cc1ccccc1
12 h				COc1ccc(NC(=O)N2C(=O)C[C@@H]2Cc2ccccc2)cc1
